# Measured values reported in ChEMBL document CHEMBL3397035, “Spectral and biological evaluation of a synthetic antimicrobial peptide derived from 1-aminocyclohexane carboxylic acid” (2015).
# Active and inactive are the calls of the source. No cut-off for these calls is given here. Square brackets hold non-standard residues; d marks the D form. Peptide text beside a SMILES is read from it. Ac6c = NC1(C(=O)O)CCCCC1
# Experiments:
# [1] = test system: Staphylococcus aureus; test: Antibacterial activity against methicillin-sensitive Staphylococcus aureus UAMS-1 after 24 hrs by standard broth microdilution method; format: functional; settings: UAMS-1, 24 h
# [2] = test system: Acinetobacter baumannii; test: Antibacterial activity against ampicillin, gentamicin, kanamycin, streptomycin, and tetracycline-resistant Acinetobacter baumannii WRAIR clinical isolate 13 after 24 hrs by standard broth microdilution method; format: functional; settings: WRAIR clinical isolate 13, 24 h
# [3] = test system: Klebsiella pneumoniae; test: Antibacterial activity against ampicillin, azithromycin, chloramphenicol, gentamicin, and tetracycline-resistant Klebsiella pneumoniae BAMS clinical isolate 07-18 after 24 hrs by standard broth microdilution method; format: functional; settings: BAMS clinical isolate 07-18, 24 h
# [4] = test system: Pseudomonas aeruginosa; test: Antibacterial activity against Pseudomonas aeruginosa PAO1 after 24 hrs by standard broth microdilution method; format: functional; settings: PAO1, 24 h
# [5] = test system: Klebsiella aerogenes; test: Antibacterial activity against Enterobacter aerogenes after 24 hrs by standard broth microdilution method; format: functional
# [6] = test system: Enterococcus faecium; test: Antibacterial activity against Enterococcus faecium MMC4 after 24 hrs by standard broth microdilution method; format: functional; settings: MMC4, 24 h
# [7] = Binding affinity to 80 mM Dodecylphosphocholine micelles assessed as Lys connectivities with pH 4.4 sodium acetate buffer by TOCSY spectra
# [8] = Binding affinity to sodium dodecyl sulfate micelles assessed as Lys connectivities with pH 4.4 sodium acetate buffer by TOCSY spectra
# [9] = test system: Lipid bilayer; test: Binding affinity to 3.5 mM small unilamellar vesicles containing POPC with pH 6.8 sodium phosphate buffer by Far-UV-CD spectra
# [10] = test system: Lipid bilayer; test: Binding affinity to 3.5 mM small unilamellar vesicles containing 4:1 POPC/POPG with pH 6.8 sodium phosphate buffer by Far-UV-CD spectra
# [11] = test system: Lipid bilayer; test: Binding affinity to 3.5 mM small unilamellar vesicles containing 60% POPE/21%POPG/19%POPC with pH 6.8 sodium phosphate buffer by Far-UV-CD spectra
# [12] = test system: Lipopolysaccharide (LPS); test: Binding affinity to lipopolysaccharides collected from Escherichia coli assessed as helical conformation with 40 mM sodium phosphate buffer at pH 6.8
# [13] = test system: Lipopolysaccharide (LPS); test: Binding affinity to lipopolysaccharides collected from Pseudomonas aeruginosa assessed as helical conformation with 40 mM sodium phosphate buffer at pH 6.8
# [14] = test system: Lipopolysaccharide (LPS); test: Binding affinity to lipopolysaccharides collected from Klebsiella pneumoniae assessed as helical conformation with 40 mM sodium phosphate buffer at pH 6.8
smiles,measurement,setting,value
CC(=O)NCC(=O)N[C@@H](Cc1ccccc1)C(=O)NC1(C(=O)NCC(=O)NC2(C(=O)N[C@@H](CCCCN)C(=O)NC3(C(=O)NCC(=O)NC4(C(=O)N[C@@H](Cc5ccccc5)C(=O)NC5(C(=O)NCC(=O)NC6(C(=O)NCC(=O)N[C@@H](CCCCN)C(=O)NC7(C(=O)N[C@@H](CCCCN)C(=O)N[C@@H](CCCCN)C(=O)N[C@@H](CCCCN)C(=O)N[C@@H](CCCCN)C(N)=O)CCCCC7)CCCCC6)CCCCC5)CCCCC4)CCCCC3)CCCCC2)CCCCC1 (Ac-GF[Ac6c]G[Ac6c]K[Ac6c]G[Ac6c]F[Ac6c]G[Ac6c]GK[Ac6c]KKKK-NH2),MIC,[1],10.9 µM
same,MIC,[2],10.9 µM
same,MIC,[3],43 µM
same,MIC,[4],21.9 µM
same,MIC,[5],21.9 µM
same,MIC,[6],10.9 µM
same,Activity,[7],Active
same,Activity,[8],Active
same,Activity,[9],inactive
same,Activity,[10],Active
same,Activity,[11],Active
same,Activity,[12],Active
same,Activity,[13],Active
same,Activity,[14],Active
